# Laboratory results reported in patent US12303497B2, “Anti-androgens for the treatment of metastatic castration-sensitive prostate cancer” (priority 2019, dated 2025).
# How the values were obtained:
# AR = AR (Homo sapiens, UniProt P10275); settings: cited from earlier work
# CYP2C8 = molecular target: T1, CYP2C8 (Homo sapiens, UniProt P10632)
# T1 sequence (P10632 1-490): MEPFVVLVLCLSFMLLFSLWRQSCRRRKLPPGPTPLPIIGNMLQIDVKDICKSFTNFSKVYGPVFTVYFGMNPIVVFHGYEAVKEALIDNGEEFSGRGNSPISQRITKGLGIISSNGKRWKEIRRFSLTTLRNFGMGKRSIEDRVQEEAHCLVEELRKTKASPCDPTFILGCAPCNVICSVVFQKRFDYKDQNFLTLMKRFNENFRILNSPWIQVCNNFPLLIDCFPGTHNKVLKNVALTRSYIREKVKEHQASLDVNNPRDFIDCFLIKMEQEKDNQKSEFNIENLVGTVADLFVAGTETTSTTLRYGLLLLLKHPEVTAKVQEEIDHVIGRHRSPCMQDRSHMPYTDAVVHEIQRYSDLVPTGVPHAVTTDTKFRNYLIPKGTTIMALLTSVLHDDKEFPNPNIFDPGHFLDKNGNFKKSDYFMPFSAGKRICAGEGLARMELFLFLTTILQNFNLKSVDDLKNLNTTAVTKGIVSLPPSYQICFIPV
# CYP1A2 = CYP1A2 (Homo sapiens, UniProt P05177); assay: In vitro effect on CYP; settings: therapeutically relevant concentrations
# P-gp = P-gp (Homo sapiens, UniProt P08183); settings: not told
# [1] = Single oral administration of radiolabeled apalutamide (AUC share, excretion); type: in vivo
# [2] = human, in vivo
# OATP1B1 = OATP1B1 (Homo sapiens, UniProt Q9Y6L6)
# CYP2D6 = CYP2D6 (Homo sapiens, UniProt P10635)
# [3] = molecular target: organic anion transporter 1 (Homo sapiens, UniProt Q4U2R8)
# CYP3A4 = CYP3A4 (Homo sapiens, UniProt P08684)
# OATP1B3 = OATP1B3 (Homo sapiens, UniProt Q9NPD5)
# CYP2C9 = CYP2C9 (Homo sapiens, UniProt P11712)
# CYP2C19 = CYP2C19 (Homo sapiens, UniProt P33261)
# BCRP = BCRP (Homo sapiens, UniProt Q9UNQ0); settings: not told
# [4] = test system: multidrug and toxin extrusions (MATEs); assay: In vitro transporter inhibition; type: in vitro ADME
# [5] = molecular target: organic anion transporter 3 (OAT3) (Homo sapiens, UniProt Q8TCC7)
# CYP2B6 = CYP2B6 (Homo sapiens, UniProt P20813)
# [6] = molecular target: organic cation transporter 2 (OCT2) (Homo sapiens, UniProt O15244)
# Plasma protein binding = type: in vitro ADME
# T877A AR mutant = T877A AR mutant (Homo sapiens, UniProt P10275, T878A); settings: literature; cited from earlier work
# [7] = up to 70 days after single oral radiolabeled dose
# Chain of CYP3A4 (P08684 whole entry): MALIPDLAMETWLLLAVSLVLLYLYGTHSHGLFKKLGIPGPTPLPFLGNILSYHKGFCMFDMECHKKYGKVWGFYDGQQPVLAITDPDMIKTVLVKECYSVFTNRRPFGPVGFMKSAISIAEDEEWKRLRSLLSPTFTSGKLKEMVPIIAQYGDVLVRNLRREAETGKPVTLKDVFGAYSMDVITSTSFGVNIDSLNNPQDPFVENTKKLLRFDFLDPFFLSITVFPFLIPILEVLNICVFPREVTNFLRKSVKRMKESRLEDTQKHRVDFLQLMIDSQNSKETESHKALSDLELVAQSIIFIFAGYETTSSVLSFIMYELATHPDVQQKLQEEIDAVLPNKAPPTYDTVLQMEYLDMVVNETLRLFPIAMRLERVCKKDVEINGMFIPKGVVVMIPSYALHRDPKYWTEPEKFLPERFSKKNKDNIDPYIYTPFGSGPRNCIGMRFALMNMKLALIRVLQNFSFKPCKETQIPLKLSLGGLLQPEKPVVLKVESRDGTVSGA
# Chain of CYP2C9 (P11712 whole entry): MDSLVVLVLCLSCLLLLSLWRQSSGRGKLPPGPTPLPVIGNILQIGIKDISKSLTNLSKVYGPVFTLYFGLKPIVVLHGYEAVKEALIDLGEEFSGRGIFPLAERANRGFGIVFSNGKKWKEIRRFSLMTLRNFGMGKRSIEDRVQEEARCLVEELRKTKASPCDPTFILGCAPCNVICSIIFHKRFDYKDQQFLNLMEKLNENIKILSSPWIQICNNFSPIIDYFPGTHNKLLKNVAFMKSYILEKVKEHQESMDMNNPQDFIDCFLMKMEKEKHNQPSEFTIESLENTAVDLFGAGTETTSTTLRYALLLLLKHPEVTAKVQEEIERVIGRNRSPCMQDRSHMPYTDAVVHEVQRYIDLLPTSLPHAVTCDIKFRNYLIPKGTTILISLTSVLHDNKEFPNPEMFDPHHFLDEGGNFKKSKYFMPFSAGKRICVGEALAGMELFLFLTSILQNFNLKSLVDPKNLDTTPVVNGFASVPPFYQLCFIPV
# Chain of organic anion transporter 3 (OAT3) (Q8TCC7 whole entry): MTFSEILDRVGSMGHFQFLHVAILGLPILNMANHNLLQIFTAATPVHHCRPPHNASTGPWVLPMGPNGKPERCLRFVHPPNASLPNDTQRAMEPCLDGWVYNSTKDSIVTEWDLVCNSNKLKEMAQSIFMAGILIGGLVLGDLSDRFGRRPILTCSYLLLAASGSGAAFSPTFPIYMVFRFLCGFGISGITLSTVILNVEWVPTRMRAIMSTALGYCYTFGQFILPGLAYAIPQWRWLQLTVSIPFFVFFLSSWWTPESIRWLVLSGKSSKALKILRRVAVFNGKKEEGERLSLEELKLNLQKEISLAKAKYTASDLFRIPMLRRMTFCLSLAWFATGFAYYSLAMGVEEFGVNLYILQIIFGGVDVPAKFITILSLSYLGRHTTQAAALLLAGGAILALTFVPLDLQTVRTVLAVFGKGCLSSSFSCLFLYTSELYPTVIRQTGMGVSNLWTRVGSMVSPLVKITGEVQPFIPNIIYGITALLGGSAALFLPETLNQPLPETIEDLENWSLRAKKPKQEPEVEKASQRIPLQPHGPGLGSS
# Chain of OATP1B3 (Q9NPD5 whole entry): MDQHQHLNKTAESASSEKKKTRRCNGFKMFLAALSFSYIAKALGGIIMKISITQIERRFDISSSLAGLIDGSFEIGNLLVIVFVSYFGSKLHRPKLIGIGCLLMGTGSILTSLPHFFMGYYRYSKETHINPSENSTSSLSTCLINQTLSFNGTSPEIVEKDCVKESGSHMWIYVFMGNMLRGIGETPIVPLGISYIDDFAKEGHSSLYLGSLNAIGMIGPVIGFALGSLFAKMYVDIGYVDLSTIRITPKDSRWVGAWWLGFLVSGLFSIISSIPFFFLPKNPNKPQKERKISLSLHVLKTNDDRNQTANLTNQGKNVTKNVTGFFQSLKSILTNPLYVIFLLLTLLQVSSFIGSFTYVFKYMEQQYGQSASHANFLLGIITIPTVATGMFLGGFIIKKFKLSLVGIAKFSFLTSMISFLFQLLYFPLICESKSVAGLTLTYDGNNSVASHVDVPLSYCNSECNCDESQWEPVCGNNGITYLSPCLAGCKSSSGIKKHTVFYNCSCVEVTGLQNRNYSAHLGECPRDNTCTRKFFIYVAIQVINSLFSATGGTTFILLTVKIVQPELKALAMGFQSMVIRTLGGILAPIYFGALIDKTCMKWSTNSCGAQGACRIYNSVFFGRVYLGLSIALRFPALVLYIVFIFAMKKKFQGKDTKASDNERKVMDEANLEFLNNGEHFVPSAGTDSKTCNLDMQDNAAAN
# Chain of CYP2D6 (P10635 whole entry): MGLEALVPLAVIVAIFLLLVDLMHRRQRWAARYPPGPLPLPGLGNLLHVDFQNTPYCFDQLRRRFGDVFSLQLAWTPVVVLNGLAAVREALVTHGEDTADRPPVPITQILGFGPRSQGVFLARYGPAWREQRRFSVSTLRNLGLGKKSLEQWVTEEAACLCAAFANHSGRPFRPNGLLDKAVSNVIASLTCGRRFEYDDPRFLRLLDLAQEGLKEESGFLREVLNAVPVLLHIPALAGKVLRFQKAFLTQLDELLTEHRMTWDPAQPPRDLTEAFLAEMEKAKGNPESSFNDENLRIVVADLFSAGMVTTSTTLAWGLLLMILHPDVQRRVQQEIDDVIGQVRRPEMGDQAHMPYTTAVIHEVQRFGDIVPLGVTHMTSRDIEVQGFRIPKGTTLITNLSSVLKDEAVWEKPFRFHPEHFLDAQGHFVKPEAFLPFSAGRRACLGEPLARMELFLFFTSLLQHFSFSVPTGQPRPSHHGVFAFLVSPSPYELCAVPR
# Chain of CYP2B6 (P20813 whole entry): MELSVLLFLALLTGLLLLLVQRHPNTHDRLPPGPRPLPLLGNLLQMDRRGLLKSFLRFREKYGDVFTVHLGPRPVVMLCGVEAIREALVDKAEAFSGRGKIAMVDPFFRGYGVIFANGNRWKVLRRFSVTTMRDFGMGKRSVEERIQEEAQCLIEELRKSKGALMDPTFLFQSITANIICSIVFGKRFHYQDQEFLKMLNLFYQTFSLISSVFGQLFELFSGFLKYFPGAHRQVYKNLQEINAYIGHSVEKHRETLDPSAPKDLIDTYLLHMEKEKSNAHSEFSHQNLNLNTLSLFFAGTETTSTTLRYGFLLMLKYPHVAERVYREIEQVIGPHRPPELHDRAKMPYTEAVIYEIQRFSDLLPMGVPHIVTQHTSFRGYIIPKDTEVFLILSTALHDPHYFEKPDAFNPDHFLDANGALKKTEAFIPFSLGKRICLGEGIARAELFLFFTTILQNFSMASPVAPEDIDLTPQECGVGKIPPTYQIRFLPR
# Chain of BCRP (Q9UNQ0 whole entry): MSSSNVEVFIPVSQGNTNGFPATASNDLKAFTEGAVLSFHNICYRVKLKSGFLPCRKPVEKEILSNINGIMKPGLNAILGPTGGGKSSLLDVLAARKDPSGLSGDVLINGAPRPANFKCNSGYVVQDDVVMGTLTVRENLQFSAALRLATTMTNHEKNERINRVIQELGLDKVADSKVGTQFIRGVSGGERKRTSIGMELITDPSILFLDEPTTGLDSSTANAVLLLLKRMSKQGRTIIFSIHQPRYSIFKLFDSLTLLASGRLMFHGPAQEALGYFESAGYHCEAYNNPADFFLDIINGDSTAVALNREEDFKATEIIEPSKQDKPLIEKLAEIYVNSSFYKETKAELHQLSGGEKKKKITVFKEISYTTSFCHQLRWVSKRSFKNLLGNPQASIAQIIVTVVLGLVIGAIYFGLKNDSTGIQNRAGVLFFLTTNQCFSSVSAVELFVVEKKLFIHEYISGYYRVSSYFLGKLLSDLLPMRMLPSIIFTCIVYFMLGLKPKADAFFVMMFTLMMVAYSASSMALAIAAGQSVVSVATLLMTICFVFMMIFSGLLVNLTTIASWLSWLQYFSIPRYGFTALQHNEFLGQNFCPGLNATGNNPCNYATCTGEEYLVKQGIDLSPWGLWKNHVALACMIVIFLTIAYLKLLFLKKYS
# Chain of CYP2C19 (P33261 whole entry): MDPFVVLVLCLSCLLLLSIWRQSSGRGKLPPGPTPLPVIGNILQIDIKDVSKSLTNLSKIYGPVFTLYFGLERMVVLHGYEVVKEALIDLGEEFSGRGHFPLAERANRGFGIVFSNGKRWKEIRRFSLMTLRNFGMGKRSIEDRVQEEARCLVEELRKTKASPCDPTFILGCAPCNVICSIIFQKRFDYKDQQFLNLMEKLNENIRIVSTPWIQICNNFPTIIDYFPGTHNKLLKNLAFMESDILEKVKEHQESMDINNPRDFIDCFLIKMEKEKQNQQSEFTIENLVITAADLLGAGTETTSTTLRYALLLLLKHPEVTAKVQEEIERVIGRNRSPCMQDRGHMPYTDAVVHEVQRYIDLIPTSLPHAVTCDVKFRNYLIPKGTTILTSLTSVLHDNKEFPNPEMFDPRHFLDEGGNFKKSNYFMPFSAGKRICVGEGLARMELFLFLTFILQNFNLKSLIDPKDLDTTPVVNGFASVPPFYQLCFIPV
# Chain of CYP1A2 (P05177 whole entry): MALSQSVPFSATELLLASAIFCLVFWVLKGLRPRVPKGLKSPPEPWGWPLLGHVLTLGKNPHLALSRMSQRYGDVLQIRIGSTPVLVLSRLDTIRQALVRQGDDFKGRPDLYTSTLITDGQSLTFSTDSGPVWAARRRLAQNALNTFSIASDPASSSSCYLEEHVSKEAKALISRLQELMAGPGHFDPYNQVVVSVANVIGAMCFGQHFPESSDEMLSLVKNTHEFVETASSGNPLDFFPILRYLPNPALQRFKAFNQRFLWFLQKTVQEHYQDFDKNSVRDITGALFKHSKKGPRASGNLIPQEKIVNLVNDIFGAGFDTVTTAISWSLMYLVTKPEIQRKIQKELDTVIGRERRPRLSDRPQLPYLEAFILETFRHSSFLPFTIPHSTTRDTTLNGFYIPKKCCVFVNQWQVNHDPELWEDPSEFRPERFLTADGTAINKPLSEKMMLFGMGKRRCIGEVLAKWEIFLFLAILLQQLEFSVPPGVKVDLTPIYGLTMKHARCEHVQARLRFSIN
molecule,measurement,setting,value
"CC(O)c1cc(C(=O)N[C@@H](C)Cn2ccc(-c3ccc(C#N)c(Cl)c3)n2)n[nH]1 (mixture of isomers) [Darolutamide, N-{(2S)-1-[3-(3-chloro-4-cyanophenyl)-1H-pyrazol-1-yl]propan-2-yl}-5-(1-hydroxyethyl)-1H-pyrazole-3-carboxamide]",Affinity of binding to AR,AR,high affinity
N-desmethyl apalutamide,CYP2C8 inhibition,CYP2C8,moderate inhibitors
same,Effect on CYP1A2,CYP1A2,do not affect
same,Substrate for P-gp,P-gp,substrates
same,Share of the total AUC,[1]; single oral radiolabeled apalutamide 240 mg,44%
same,Dose recovered in feces as this compound,[1]; [7],2%
same,Dose recovered in urine as this compound,[1]; [7],2.7%
same,"AUC at steady-state, mean",[2],124 µg·h/mL
same,"Cmax at steady-state, mean",[2],5900 ng/mL
same,Pharmacokinetics in specific populations,[2],No clinically significant differences
same,Substrate for OATP1B1,OATP1B1,not
same,Effect on CYP2D6,CYP2D6,do not affect
same,Inhibition of organic anion transporter 1,[3],do not inhibit
same,CYP3A4 inhibition,CYP3A4,weak inhibitors
same,Substrate for OATP1B3,OATP1B3,not
same,CYP2C9 inhibition,CYP2C9,weak inhibitors
same,CYP2C19 inhibition,CYP2C19,weak inhibitors
same,Substrate for BCRP,BCRP,not
same,Inhibition of MATEs,[4],inhibit
same,Inhibition of OAT3,[5],inhibit
same,CYP2B6 inhibition,CYP2B6,moderate inhibitors
same,Inhibition of OCT2,[6],inhibit
same,Bound to plasma proteins,Plasma protein binding,95%
CC(C)(O)C(=O)Nc1ccc([N+](=O)[O-])c(C(F)(F)F)c1 [hydroxyflutamide],Activity in T877A AR mutant,T877A AR mutant,AR agonists
